Measured values published in PubChem BioAssay AID292 (DTP/NCI, 2004).
Where “and” joins values, the source holds several entries; their conditions need not be identical. Equal values may be shown once. Toxic doses and inconclusive results are not listed. How the source made its calls: active means survival T/C of 150% or more; inactive means T/C below 125% in these data.

System: B6C3F1 mice, ip Sarcoma M5076, median survival T/C
Assay: NCI In Vivo Anticancer Drug Screen. Data for tumor model Sarcoma M5076 (intraperitoneal) in B6C3F1 mice
Settings: endpoint: median survival time, higher = longer survival
Method: The antitumor activity of compounds was measured in mice bearing transplantable tumors. Survival or tumor size were measured and the results are expressed as the measurement made in the treated group (T) divided by the measurement made in the vehicle treated control group (C). The tumor model used in this assay is Sarcoma M5076 (intraperitoneal) in B6C3F1 mice

[1] = dose: 25.0 mg/kg/injection, schedule: Q04DX004 (ip), vehicle: saline with Tween-80
[2] = dose: 50.0 mg/kg/injection, schedule: Q04DX004 (ip), vehicle: saline with Tween-80
[3] = dose: 100.0 mg/kg/injection, schedule: Q04DX004 (ip), vehicle: saline with Tween-80
[4] = dose: 200.0 mg/kg/injection, schedule: Q04DX004 (ip), vehicle: saline with Tween-80
[5] = dose: 400.0 mg/kg/injection, schedule: Q04DX004 (ip), vehicle: saline with Tween-80

Measured: T/C

c1cc2n(n1)CCN2
inactive: dose: 50.0 mg/kg/injection, schedule: Q04DX005 (ip), vehicle: saline 86 % of control

CC(CN1CC(=O)NC(=O)C1)N1CC(=O)NC(=O)C1 (stereo unspecified)
inactive: dose: 25.0 mg/kg/injection, schedule: Q04DX005 (ip), vehicle: saline with Tween-80 118 % of control | dose: 50.0 mg/kg/injection, schedule: Q04DX005 (ip), vehicle: saline with Tween-80 103 % of control

CCOc1c2c(nn(C)c1=O)Oc1ccccc1N2CCCN1CCOCC1
inactive: dose: 7.5 mg/kg/injection, schedule: Q04DX004 (ip), vehicle: saline with Tween-80 92 % of control | dose: 15.0 mg/kg/injection, schedule: Q04DX004 (ip), vehicle: saline with Tween-80 106 % of control | dose: 30.0 mg/kg/injection, schedule: Q04DX004 (ip), vehicle: saline with Tween-80 113 % of control | dose: 60.0 mg/kg/injection, schedule: Q04DX004 (ip), vehicle: saline with Tween-80 97 % of control

COc1ccc(CCN2C(=O)C(=O)N(c3cccc(Cl)c3)C2=O)cc1OC
inactive: dose: 43.75 mg/kg/injection, schedule: Q04DX004 (ip), vehicle: Klucel (hydroxypropylcellulose) (HPC) 88 % of control | dose: 87.5 mg/kg/injection, schedule: Q04DX004 (ip), vehicle: Klucel (hydroxypropylcellulose) (HPC) 91 % of control | dose: 175.0 mg/kg/injection, schedule: Q04DX004 (ip), vehicle: Klucel (hydroxypropylcellulose) (HPC) 88 % of control | dose: 350.0 mg/kg/injection, schedule: Q04DX004 (ip), vehicle: Klucel (hydroxypropylcellulose) (HPC) 98 % of control | dose: 700.0 mg/kg/injection, schedule: Q04DX004 (ip), vehicle: Klucel (hydroxypropylcellulose) (HPC) 92 % of control

CCC(NC(N)=O)C(CC)NC(N)=O (stereo unspecified)
inactive: dose: 12.5 mg/kg/injection, schedule: Q04DX004 (ip), vehicle: saline with Tween-80 92 % of control | [1] 92 % of control

ClC1(Cl)Cc2ccccc21
inactive: [2] 103 % of control | [3] 114 % of control | [4] 92 % of control | [5] 87 % of control

S=c1sc2ccccc2n1CN1CCOCC1
inactive: [1] 105 % of control and 107 % of control | [2] 95 % of control and 111 % of control | [3] 90 % of control and 104 % of control | [4] 96 % of control and 97 % of control

COc1ccc(OC)c(Cc2cnc3nc(N)nc(N)c3c2C)c1
inactive: dose: 25.0 mg/kg/injection, schedule: Q04DX004 (ip), vehicle: water 95 % of control | dose: 50.0 mg/kg/injection, schedule: Q04DX004 (ip), vehicle: water 115 % of control

CC(=O)NC(CSC1=C2NC(=O)\C=C/C=C/C=C\C(C)C(O)CC(=O)/C(C)=C\CC(O)/C=C/C(C)C(O)C(C)C=C(C)C(=O)c3c(O)c(C)cc(c3C1=O)C2=O)C(=O)O (stereo unspecified)
inactive: dose: 1.25 mg/kg/injection, schedule: Q04DX004 (ip), vehicle: Klucel (hydroxypropylcellulose) (HPC) 100 % of control | dose: 2.5 mg/kg/injection, schedule: Q04DX004 (ip), vehicle: Klucel (hydroxypropylcellulose) (HPC) 100 % of control | dose: 5.0 mg/kg/injection, schedule: Q04DX004 (ip), vehicle: Klucel (hydroxypropylcellulose) (HPC) 101 % of control | dose: 10.0 mg/kg/injection, schedule: Q04DX004 (ip), vehicle: Klucel (hydroxypropylcellulose) (HPC) 93 % of control | dose: 20.0 mg/kg/injection, schedule: Q04DX004 (ip), vehicle: Klucel (hydroxypropylcellulose) (HPC) 100 % of control

Cc1c(/C=C/C(=O)O)no[n+]1[O-]
inactive: [1] 100 % of control | [2] 101 % of control | [3] 101 % of control | [4] 101 % of control | [5] 93 % of control

O=C(Nc1ccccc1[N+](=O)[O-])C1C(=O)C(=O)N(c2ccccc2[N+](=O)[O-])C1=O (stereo unspecified)
inactive: dose: 50.0 mg/kg/injection, schedule: Q04DX004 (ip), vehicle: Klucel (hydroxypropylcellulose) (HPC) 101 % of control | dose: 100.0 mg/kg/injection, schedule: Q04DX004 (ip), vehicle: Klucel (hydroxypropylcellulose) (HPC) 89 % of control | dose: 200.0 mg/kg/injection, schedule: Q04DX004 (ip), vehicle: Klucel (hydroxypropylcellulose) (HPC) 92 % of control

C[C@@]12C(=O)OC(=O)[C@]1(C)[C@H]1CC[C@@H]2O1
inactive: dose: 125.0 micrograms/kg/injection, schedule: Q01DX009 (ip), vehicle: acetone 100 % of control | dose: 250.0 micrograms/kg/injection, schedule: Q01DX009 (ip), vehicle: acetone 115 % of control | dose: 500.0 micrograms/kg/injection, schedule: Q01DX009 (ip), vehicle: acetone 116 % of control | dose: 1000.0 micrograms/kg/injection, schedule: Q01DX009 (ip), vehicle: acetone 100 % of control
